In ChEMBL document CHEMBL1201862, “PubChem BioAssay data set” (2004):
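Following 48 hours of exposure in 96-well plates, responses at five concentrations were used to interpolate endpoints linearly. Abbreviation: GI50, concentration required for 50% inhibition of growth.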 Calls of active or inactive are those of the source. Cut-off read from the data, not from the text of the source: active = GI50 up to about 1.1 µM and inactive = higher.

Tests used:
Assay in all cases: NCI anticancer screen, dose series, 48 h
[1] = test system: ACHN
[2] = test system: COLO 205
[3] = test system: HOP-62
[4] = test system: LOX IMVI
[5] = test system: MDA-MB-231
[6] = test system: MOLT-4
[7] = test system: NCI-H226
[8] = test system: NCI-H23
[9] = test system: NCI-H460
[10] = test system: OVCAR-3
[11] = test system: OVCAR-5
[12] = test system: PC-3
[13] = test system: RPMI-8226
[14] = test system: SF-539
[15] = test system: SR
[16] = test system: T47D
[17] = test system: U-251
[18] = test system: UACC-62
[19] = test system: UO-31
[20] = test system: CCRF-CEM

Measured: GI50

CCOc1cc(/C=N/c2nc3cc4sc(/N=C/c5ccc(O)c(OCC)c5)nc4cc3s2)ccc1O
inactive: [1] > 100 µM | [2] 24.7 µM | [3] > 100 µM | [4] 55.8 µM | [5] > 100 µM | [6] 30.8 µM | [7] 25.8 µM | [8] > 100 µM | [9] 20.4 µM | [10] > 100 µM | [11] > 100 µM | [12] > 100 µM | [13] > 100 µM | [14] 20.7 µM | [15] 12.9 µM | [16] > 100 µM | [17] > 100 µM | [18] > 100 µM | [19] > 100 µM

CCOC(=O)c1c2c(n3ccccc13)C(=O)c1ccccc1C2=O
inactive: [1] 17.9 µM | [2] 26.5 µM | [3] 97.9 µM | [4] > 100 µM | [5] > 100 µM | [6] > 100 µM | [7] > 100 µM | [8] 42.2 µM | [9] 3.52 µM | [10] > 100 µM | [11] > 100 µM | [12] > 100 µM | [13] > 100 µM | [14] 36.7 µM | [15] > 100 µM | [16] > 100 µM | [17] 54.5 µM | [18] 67.9 µM | [19] > 100 µM

O=C1CSC2(CC(/C=C/C=C/c3ccccc3)=NN2c2cccc(S(=O)(=O)O)c2)N1c1nc2ccccc2s1 (configuration not stated)
inactive: [1] 40.3 µM | [20] 20.8 µM | [2] 50.8 µM | [4] 20 µM | [5] 31.3 µM | [6] 21.2 µM | [7] 24.8 µM | [8] 43.8 µM | [9] 31.3 µM | [11] > 100 µM | [12] 37.3 µM | [13] 21.2 µM | [14] 51.1 µM | [15] 21.2 µM | [16] 23.4 µM | [17] 24 µM | [18] 35.2 µM | [19] 45.3 µM

O=c1oc2c/c(=C\c3ccccc3)c(=O)c3cccc1c3-2
inactive: [1] > 100 µM | [2] 37.3 µM | [3] 19.9 µM | [4] 19.7 µM | [5] 31.7 µM | [7] 31.7 µM | [8] 36.7 µM | [9] 74.5 µM | [10] 23.6 µM | [11] 61.7 µM | [12] 56 µM | [13] 36.2 µM | [14] 31.5 µM | [15] 28.8 µM | [16] 27.3 µM | [17] 18.6 µM | [18] 24.5 µM | [19] 30.1 µM

O=c1[nH]nc(Cc2ccccc2)n1/N=C\CC/C=N\n1c(Cc2ccccc2)n[nH]c1=O
inactive: [1] 49.9 µM | [20] 12.5 µM | [2] > 100 µM | [3] 22.1 µM | [4] 15.7 µM | [5] 61.9 µM | [6] 31.1 µM | [7] 33.9 µM | [8] 23 µM | [10] 61.7 µM | [11] > 100 µM | [12] 37.4 µM | [13] 21.5 µM | [14] 19 µM | [15] 9.77 µM | [16] 30.9 µM | [17] 34 µM | [18] 16.8 µM | [19] > 100 µM

COC(=O)c1ccc2cc(O)ccc2c1
inactive: [1] 76.6 µM | [20] > 100 µM | [2] > 100 µM | [3] > 100 µM | [4] 55.6 µM | [5] > 100 µM | [6] 25.2 µM | [7] 60.1 µM | [8] 72.3 µM | [10] > 100 µM | [11] > 100 µM | [12] > 100 µM | [13] 53.5 µM | [14] 89.3 µM | [15] 22 µM | [16] 56.4 µM | [17] 87.7 µM | [18] > 100 µM | [19] 32.4 µM
